From patent US6509355B1, “Treatment of disorders of the outer retina” (Alcon Laboratories, Inc., priority 1998, dated 2003)

Key:
NMDA receptor = experiment: Binding affinity to the NMDA receptor; conditions: order of magnitude only
[1] = molecular target: NR1A/NR2B subtype of the polyamine binding site of the NMDA receptor (Homo sapiens, UniProt Q05586+Q13224); conditions: cited from earlier work
[2] = Drugs of the Future 1994; cited from earlier work
[3] = system: light induced functional or morphological changes; experiment: Light damage paradigms (light induced damage paradigm); conditions: in vivo
Description: Eliprodil was evaluated in our light induced damage paradigm, a model of retinal degenerative diseases such as retinitis pigmentosa and age-related macular degeneration.

retinal laser burn = experiment: Retinal laser burn spread damage: argon laser, lesion area in outer nuclear layer after 48 hours; type: in vivo, Pigmented Long Evans rats
Description: The eye is exposed to high-energy laser radiation during the performance of retinal photocoagulation therapy (grid, focal and […]) or during photodynamic therapy. This type of therapy is often employed during treatment of choroidal neovascularization, proliferative stages of diabetic retinopathy, retinopathy of prematurity, or to repair retinal holes or […]. Associated with this laser therapy is tissue destruction leading to vision deterioration. […] It is believed that this vision loss results directly from the expansion of the laser-induced lesion to surrounding normal neurosensory retina and RPE. Singlet oxygen and other reactive oxygen species as well as cytokines are generated in the area of the laser burn and thought to migrate laterally to cause collateral retinal damage. Retinal morphology changes in this area are similar to changes in our photo-oxidative retinopathy paradigm. […] Pigmented Long Evans rats were randomly assigned to control, vehicle or drug dosed groups. […] After a 48-hour recovery period, eyes were fixed, dehydrated, and embedded in plastic resin. Histological assessment of laser burns was performed by flatmounting the retina and sectioning the tissue in a plane tangential to the nerve fiber layer. Using this technique, the lesion area in the outer nuclear layer could be calculated using an image analysis system. […] The laser bum center was marked by; complete closure of all capillaries, arterioles and venuoles; perforation of Bruch's membrane; pyknosis and necrosis of all photoreceptor nuclei; and destruction of inner and outer segments. Spread of the lesion into peripheral retina consisted of shortening of outer segments, inner segment swelling, clumping of melanin granules in the RPE and choroid, and vacuolization of the RPE.

[4] = Drugs of the Future 1994; cited from earlier work; remark: listed apart in the source
[5] = system: photo-oxidative induced retinopathy; experiment: Photo-oxidative induced retinopathy: 6-hour blue light exposure, ERG after 5-day recovery
Description: Photic retinopathy results from excessive excitation of the retinal pigment epithelium and neuroretina by absorption of visible or near ultraviolet radiation. Lesion severity is dependent upon wavelength, irradiance, exposure duration, species, ocular pigmentation, and age. Damage may result from peroxidation of cellular membranes, inactivation of mitochondrial enzymes such as cytochrome oxidase, or increased intracellular calcium. Cellular damage resulting from photo-oxidative stress leads to cell death by apoptosis, (Shahinfar, S., Edward. D. P. and Tso, M. O. (1991), A pathologic study of photoreceptor cell death in retinal photic injury. Current Eye Research, 10:47-59: Abler, A. S., Chang, C. J., Fu, J. and Tso, M. O. (1994), Photic injury triggers apoptosis of photoreceptor cells. Investigative Ophthalmology & Visual Science, 35(Suppl):1517). Oxidative stress induced apoptosis has been implicated as a cause of many ocular pathologies, including, iatrogenic retinopathy, macular degeneration, retinitis pigmentosa and other forms of heredodegenerative disease, ischemic retinopathy, retinal tears, retinal detachment, glaucoma and retinal neovascularization (Chang, C. J., Lai, W. W., Edward, D. P. and Tso, M. O. (1995), Apoptotic photoreceptor cell death after traumatic retinal detachment in humans, Archives of Ophthalmology, 113:880-886: Portera-Cailliau, C., Sung, C. H., Nathans, J. and Adler, R. (1994), Apoptotic photoreceptor cell death in mouse models of retinitis pigmentosa, Proceedings of National Academy of Science (U.S.A.), 91:974-978; Buchi, E. R. (1992), Cell death in the rat retina after a pressure-induced ischaemia-reperfusion insult: an electron microscopic study. I. Ganglion cell layer and inner nuclear layer, Experimental Eye Research, 55:605-613; Quigley, H. A., Nickells. R. W., Kerrigan, L. A., Pease, M. E., Thibault, D. J. and Zack, D. J. (1995), Retinal ganglion cell death in experimental glaucoma and after axotomy occurs by apoptosis, Investigative Ophthalmology & Visual Science, 36:774-786). […] Alan R. Liss, Inc., New York; Collier, R., W. Waldron and Zigman, S. (1989), Temporal sequence of changes to the gray squirrel retina after near-UV exposure, Investigative Ophthalmology & Visual Science, 30:631-637), non-human primates (Tso, M. O. M. (1973), Photic maculopathy in rhesus monkey. A light and electron microscopic study. Investigative Ophthalmology & Visual Science, 12:17-34; Ham, W. T., Jr., Ruffolo, J. J., Jr., Mueller, H. A. and Guerry, D., III. (1980), The nature of retinal radiation damage: dependence on wavelength, power level and exposure time, Vision Research, 20:1105-1111; Sperling, H. G., Johnson, C. and Harwerth, R. S. (1980), Differential spectral photic damage to primate cones, Vision Research, 20:1117-1125: Sykes, S. M., Robison, W. G., Jr., Waxler, M. and Kuwabara, T. (1981), Damage to the monkey retina by broad spectrum fluorescent light, Investigative Ophthalmology & Visual Science, 20:425-434; Lawwill, T. (1982), Three major pathologic processes caused by light in the primate retina: A search for mechanisms, Transactions of the American Ophthalmology Society, 80:517-577), and man (Marshall, J. Hamilton, A. M. and Bird, A. C. (1975), Histopathology of ruby and argon laser lesions in monkey and human retina, British Journal of Ophthalmology, 59:610-630; Green, W. R. and Robertson, D. M. (1991), Pathologic findings of photic retinopathy in the human eye. American Journal of Ophthalmology, 112:520-27).

[6] = system: laser induced thermal burns to the retina; conditions: cited from earlier work

NR1A/NR2B subtype of the polyamine binding site of the NMDA receptor, sequence (Q13224 27-1484, other chains not shown): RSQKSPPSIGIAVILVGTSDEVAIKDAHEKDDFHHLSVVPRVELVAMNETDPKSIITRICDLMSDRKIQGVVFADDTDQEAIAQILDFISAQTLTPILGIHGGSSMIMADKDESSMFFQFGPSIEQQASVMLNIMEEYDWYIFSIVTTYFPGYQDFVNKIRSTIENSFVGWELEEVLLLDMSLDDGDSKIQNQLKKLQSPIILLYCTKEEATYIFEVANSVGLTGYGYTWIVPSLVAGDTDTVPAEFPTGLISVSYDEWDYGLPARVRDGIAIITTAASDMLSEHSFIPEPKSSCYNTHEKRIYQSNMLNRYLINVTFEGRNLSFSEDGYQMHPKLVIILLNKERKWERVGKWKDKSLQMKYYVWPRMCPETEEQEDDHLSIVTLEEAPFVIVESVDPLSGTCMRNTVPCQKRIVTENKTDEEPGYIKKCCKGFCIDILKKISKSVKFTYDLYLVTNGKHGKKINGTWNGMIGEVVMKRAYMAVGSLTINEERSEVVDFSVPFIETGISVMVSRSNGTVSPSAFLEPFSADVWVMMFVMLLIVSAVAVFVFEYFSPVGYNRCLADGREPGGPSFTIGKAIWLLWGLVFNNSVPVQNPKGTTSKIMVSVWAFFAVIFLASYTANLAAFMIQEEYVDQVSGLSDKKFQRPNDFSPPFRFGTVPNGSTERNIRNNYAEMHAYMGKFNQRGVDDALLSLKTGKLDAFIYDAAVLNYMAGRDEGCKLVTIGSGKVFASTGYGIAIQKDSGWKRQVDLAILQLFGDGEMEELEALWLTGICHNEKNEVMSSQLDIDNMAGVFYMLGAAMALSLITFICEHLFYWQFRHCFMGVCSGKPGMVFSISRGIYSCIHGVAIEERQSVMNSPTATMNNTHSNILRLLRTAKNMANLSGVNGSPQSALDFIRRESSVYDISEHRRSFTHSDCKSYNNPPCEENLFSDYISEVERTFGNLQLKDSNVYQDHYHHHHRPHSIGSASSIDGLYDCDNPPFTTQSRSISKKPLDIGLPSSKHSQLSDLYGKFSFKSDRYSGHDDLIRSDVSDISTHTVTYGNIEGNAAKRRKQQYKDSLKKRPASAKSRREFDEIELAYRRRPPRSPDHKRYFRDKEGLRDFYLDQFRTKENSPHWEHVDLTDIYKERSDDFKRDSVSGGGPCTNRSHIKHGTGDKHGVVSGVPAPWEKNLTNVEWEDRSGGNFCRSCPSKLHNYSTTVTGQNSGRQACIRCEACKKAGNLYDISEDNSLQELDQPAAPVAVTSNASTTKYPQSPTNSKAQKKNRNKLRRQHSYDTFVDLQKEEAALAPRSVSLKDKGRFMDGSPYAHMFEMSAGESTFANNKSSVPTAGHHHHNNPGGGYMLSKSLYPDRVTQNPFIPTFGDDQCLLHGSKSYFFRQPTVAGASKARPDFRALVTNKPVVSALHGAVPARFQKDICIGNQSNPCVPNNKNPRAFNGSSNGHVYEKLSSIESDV

OC(CN1CCC(Cc2ccc(F)cc2)CC1)c1ccc(Cl)cc1 (racemic) [Eliprodil, 2-[4-(4-fluorobenzyl)-piperidino]-1-(4-chlorophenyl)ethanol]
binding affinity to the NMDA receptor (NMDA receptor): nanomolar
subtype preference of NMDA receptor block [1]: preferentially block
crossing of the blood-brain barrier [2]: effectively crosses the blood-brain barrier
oral bioavailability [2]: orally bioavailable
preventing light induced functional or morphological changes [3]: completely protected
Laser burn lesion area (retinal laser burn; 10 mg/kg IP): 55,411.67 μ^2
reduction in laser lesion burn size (retinal laser burn; 10 mg/kg IP): No reduction
reduction of retinal burn area compared to vehicle (retinal laser burn; IP, dose not given): approximately 60%
significance of burn area reduction compared to vehicle (retinal laser burn; IP, dose not given): significantly reduced
average burn area (retinal laser burn; IP, dose not given, vehicle 55,243.65, control 50,627.07): 22,406 μ^2
efficacy compared to R-eliprodil (retinal laser burn; summary): twice as efficacious
potency compared to R-eliprodil (retinal laser burn; summary): two fold more potent
reduction of collateral retinal damage around the laser burn (summary) (retinal laser burn; summary): significant reduction
incidence of adverse effects upon administration [4]: low incidence of adverse effects
dose dependence of protection of outer and inner retina function ([5]; rat, in vivo): dose-dependent protection
ERGs, % of normal ([5]; rat, in vivo, ip, 2 mg/kg): approximately 32%
protection of outer and inner retina function against light induced retinal degeneration ([5]; rat, in vivo, ip, 2 mg/kg): not significantly different than vehicles
ERGs, % of normal ([5]; rat, in vivo, ip, 10 mg/kg): approximately 32%
protection of outer and inner retina function against light induced retinal degeneration ([5]; rat, in vivo, ip, 10 mg/kg): not significantly different than vehicles
ERG a-wave, % of normal ([5]; rat, in vivo, ip, 20 mg/kg): 57%
ERG a-wave, fold higher than vehicle dosed rats ([5]; rat, in vivo, ip, 20 mg/kg): 2.4 fold
ERG b-wave, % of normal ([5]; rat, in vivo, ip, 20 mg/kg): 53%
ERG b-wave, fold higher than vehicle dosed rats ([5]; rat, in vivo, ip, 20 mg/kg): 2.2 fold
Maximum a-wave response amplitude, fold higher than vehicle dosed rats ([5]; rat, in vivo, ip, 20 mg/kg): 2.4 fold
maximum a-wave response amplitude ([5]; rat, in vivo, ip, 20 mg/kg): 395.82 μV
response amplitudes, % of normal ([5]; rat, in vivo, ip, 20 mg/kg): approximately 60%
Maximum a-wave response amplitude, fold higher than vehicle dosed rats ([5]; rat, in vivo, ip, 40 mg/kg): 2.25 fold
maximum a-wave response amplitude ([5]; rat, in vivo, ip, 40 mg/kg): 419.85 μV
protection of outer and inner retina function against light induced retinal degeneration ([5]; rat, in vivo, ip, 40 mg/kg): significant protection
response amplitudes, % of normal ([5]; rat, in vivo, ip, 40 mg/kg): approximately 60%

C[C@]12N[C@H](Cc3ccccc31)c1ccccc12 [MK-801, reference compound]
prevention of photoreceptor loss ([6]; 3 and 20 days post laser exposure): did not significantly prevent
preventing the spread of laser induced thermal burns to the retina ([6]; at 60 days): minimally effective
dose dependence of protection of outer and inner retina function ([5]; Experiment 1): dose-dependent protection
protection of outer and inner retina function against light induced retinal degeneration ([5]; Experiment 1, 2 mg/kg IP, vs vehicle): No significant protection
protection of outer and inner retina function against light induced retinal degeneration ([5]; Experiment 1, 10 mg/kg IP, vs vehicle): No significant protection
ERG responses compared with control (normal) ([5]; Experiment 1, 20 mg/kg IP): not significantly different than control
protection of outer and inner retina function against light induced retinal degeneration ([5]; Experiment 1, 20 mg/kg IP at 48, 24, 0 h before light, vs vehicle): significant protection
maximum a-wave response amplitude ([5]; Experiment 1, 20 mg/kg IP, controls 734.05 μV): 537.93 μV
maximum b-wave response amplitude ([5]; Experiment 1, 20 mg/kg IP, controls 1807 μV): 1449.77 μV
rescue of RPE and photoreceptor cells (summary) ([5]; summary of Experiments 1 and 2): Complete protection
